Source: US11566022B2, “3-(5-methoxy-1-oxoisoindolin-2-yl)piperidine-2,6-dione derivatives and uses thereof” (NOVARTIS AG, priority 2019, dated 2023)
Where two headings read alike, the source gives them in different places.

Molecular target: HiBit-WIZ fusion protein (Homo sapiens, UniProt O95785+Q96SW2)
Assay: Quantification of WIZ protein levels in HiBit tag fusion protein assay (WIZ HiBit assay in 293T cells)
Assay type: cell-based
Set-up: Dmax: dose or concentration left out as unconfirmed
Settings: for remaining activity at up to 25 µM: read-out: WIZ Amax; for DC50: WIZ HiBit assay in 293T cells, 10-point, 5-fold dose response, highest concentration 25 μM, about 18 hours, read-out: WIZ AC50
[1] = HEK-293T, 100 minus Amax, 293T cells, read-out: % degradation of WIZ (100-Amax)
[2] = HEK-293T, DMSO-normalized, curve-fitted percentage of WIZ-HiBit remaining at 25 uM, 293T cells

Chain of HiBit-WIZ fusion protein (O95785 whole entry, the tested form may be a part): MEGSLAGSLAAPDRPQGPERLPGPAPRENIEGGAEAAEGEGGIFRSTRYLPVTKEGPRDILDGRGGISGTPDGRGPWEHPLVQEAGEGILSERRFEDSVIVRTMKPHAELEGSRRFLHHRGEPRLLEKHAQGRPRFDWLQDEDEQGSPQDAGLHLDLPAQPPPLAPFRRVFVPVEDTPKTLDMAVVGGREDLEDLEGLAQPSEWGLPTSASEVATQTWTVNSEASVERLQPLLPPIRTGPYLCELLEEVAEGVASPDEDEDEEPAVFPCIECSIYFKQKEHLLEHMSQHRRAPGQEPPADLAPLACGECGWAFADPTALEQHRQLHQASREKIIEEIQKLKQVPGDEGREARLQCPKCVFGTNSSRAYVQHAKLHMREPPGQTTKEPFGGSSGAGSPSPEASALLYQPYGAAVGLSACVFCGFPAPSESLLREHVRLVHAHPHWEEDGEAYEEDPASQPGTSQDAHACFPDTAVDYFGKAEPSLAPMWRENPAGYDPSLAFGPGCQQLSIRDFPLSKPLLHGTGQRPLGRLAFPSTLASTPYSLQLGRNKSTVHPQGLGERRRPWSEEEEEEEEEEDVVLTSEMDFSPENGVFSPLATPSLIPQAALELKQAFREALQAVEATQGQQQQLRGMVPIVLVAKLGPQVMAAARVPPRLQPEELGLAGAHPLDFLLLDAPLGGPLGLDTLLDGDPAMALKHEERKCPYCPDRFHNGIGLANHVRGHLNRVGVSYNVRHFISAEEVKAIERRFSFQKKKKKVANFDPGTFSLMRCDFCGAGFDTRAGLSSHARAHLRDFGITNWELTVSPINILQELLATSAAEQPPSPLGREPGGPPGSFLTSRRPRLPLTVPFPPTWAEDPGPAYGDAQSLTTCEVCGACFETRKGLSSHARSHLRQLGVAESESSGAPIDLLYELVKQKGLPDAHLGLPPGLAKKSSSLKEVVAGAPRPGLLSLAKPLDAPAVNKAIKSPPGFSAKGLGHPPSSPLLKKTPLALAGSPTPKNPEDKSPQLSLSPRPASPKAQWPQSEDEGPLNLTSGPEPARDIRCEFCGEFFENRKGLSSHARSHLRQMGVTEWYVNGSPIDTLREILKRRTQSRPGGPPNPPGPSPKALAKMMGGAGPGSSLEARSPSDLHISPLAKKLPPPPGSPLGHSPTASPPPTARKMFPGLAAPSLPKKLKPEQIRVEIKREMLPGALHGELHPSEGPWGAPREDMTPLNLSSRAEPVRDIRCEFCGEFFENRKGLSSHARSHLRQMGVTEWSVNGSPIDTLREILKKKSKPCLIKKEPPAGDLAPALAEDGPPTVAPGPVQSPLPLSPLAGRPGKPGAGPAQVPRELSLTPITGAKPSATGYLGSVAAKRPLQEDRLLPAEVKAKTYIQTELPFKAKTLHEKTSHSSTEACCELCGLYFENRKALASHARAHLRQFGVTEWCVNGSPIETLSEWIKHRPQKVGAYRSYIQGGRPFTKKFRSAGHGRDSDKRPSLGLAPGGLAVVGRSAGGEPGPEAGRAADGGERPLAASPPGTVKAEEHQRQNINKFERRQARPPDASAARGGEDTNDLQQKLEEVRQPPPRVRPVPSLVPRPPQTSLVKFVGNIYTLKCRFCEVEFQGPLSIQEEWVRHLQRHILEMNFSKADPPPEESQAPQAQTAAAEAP
Chain of HiBit-WIZ fusion protein (Q96SW2 whole entry, the tested form may be a part): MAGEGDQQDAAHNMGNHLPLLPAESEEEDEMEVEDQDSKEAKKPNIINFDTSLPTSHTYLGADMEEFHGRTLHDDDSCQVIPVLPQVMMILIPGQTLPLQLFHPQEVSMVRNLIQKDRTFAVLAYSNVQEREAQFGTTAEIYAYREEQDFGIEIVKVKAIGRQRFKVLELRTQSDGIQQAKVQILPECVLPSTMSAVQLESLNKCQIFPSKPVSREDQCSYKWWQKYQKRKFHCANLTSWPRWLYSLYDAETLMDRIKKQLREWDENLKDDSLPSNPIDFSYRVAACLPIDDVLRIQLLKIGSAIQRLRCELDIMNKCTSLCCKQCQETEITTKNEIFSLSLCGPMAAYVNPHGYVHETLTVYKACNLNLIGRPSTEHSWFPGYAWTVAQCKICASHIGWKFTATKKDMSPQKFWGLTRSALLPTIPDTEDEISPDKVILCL
Chain of HiBit-WIZ fusion protein (Q16531 whole entry partner, the tested form may be a part): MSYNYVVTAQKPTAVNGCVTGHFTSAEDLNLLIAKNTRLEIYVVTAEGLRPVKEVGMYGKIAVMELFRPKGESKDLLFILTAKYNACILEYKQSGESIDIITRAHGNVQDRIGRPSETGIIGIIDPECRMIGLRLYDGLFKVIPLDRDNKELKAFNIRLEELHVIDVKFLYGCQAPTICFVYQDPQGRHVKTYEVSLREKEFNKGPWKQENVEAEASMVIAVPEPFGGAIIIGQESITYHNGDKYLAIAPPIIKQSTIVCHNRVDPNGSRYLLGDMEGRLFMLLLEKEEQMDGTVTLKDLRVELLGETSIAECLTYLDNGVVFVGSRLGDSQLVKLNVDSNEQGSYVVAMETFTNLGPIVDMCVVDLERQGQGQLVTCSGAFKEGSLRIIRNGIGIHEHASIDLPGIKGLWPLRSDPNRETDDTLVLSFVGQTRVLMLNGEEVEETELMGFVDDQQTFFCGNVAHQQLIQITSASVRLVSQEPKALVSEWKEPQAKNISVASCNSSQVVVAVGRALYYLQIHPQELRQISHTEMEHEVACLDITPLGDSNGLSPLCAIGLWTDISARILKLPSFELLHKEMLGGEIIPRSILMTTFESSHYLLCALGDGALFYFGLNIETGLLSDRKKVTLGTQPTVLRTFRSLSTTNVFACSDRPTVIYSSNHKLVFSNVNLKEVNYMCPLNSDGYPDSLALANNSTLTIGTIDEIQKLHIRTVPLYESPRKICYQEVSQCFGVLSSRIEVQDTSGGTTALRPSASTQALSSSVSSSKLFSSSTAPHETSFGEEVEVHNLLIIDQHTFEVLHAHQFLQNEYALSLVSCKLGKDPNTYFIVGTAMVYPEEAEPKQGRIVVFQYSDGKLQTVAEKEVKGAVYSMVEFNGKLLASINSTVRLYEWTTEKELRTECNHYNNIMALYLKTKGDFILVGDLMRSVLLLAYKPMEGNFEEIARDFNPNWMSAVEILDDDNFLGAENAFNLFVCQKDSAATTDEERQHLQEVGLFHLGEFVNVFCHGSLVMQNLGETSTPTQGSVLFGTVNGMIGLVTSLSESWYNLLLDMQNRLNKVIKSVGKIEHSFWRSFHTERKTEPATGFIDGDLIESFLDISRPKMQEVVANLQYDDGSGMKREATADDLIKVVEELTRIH

SMILES	Dmax [1] [%]	remaining activity at up to 25 µM [2] [%]	DC50 [µM]	Dmax (HEK-293T, read-out: % degradation of WIZ (100-Amax), 100 minus Amax, 293T cells) [%]	remaining activity (HEK-293T, read-out: WIZ Amax, DMSO-normalized, curve-fitted percentage of WIZ-HiBit remaining at 25 uM, 293T cells) [%]	% degradation of WIZ (100-Amax) (100 minus Amax, at 25 uM, 293T cells) [%]	WIZ Amax (DMSO-normalized, curve-fitted percentage of WIZ-HiBit remaining at 25 uM, 293T cells) [%]
O=C1CCC(N2Cc3cc(OC[C@H]4CCCCN4Cc4ccnc(N5CCOCC5)c4)ccc3C2=O)C(=O)N1 (stereo partly drawn) [Compound I-50dr]	85.5	14.5	0.097				
Cc1nnsc1CN1CCCC[C@H]1COc1ccc2c(c1)CN(C1CCC(=O)NC1=O)C2=O (stereo partly drawn) [Compound I-50at]	9.8	90.2	> 25				
Cc1noc(-c2ccc(C(=O)N3CCCC[C@H]3COc3ccc4c(c3)CN(C3CCC(=O)NC3=O)C4=O)cc2)n1 (stereo partly drawn) [Compound I-72ar]	71.8	28.2	2.57				
O=C1CCC(N2Cc3cc(OC[C@H]4CCCCN4Cc4ccc5c(c4)OCO5)ccc3C2=O)C(=O)N1 (stereo partly drawn) [Compound I-137, 3-(5-(((R)-1-(benzo[d][1,3]dioxol-5-ylmethyl)piperidin-2-yl)methoxy)-1-oxoisoindolin-2-yl)piperidine-2,6-dione]			0.0015	90	10		
CCN1CCC[C@@H](C(=O)N2CCCC[C@H]2COc2ccc3c(c2)CN(C2CCC(=O)NC2=O)C3=O)C1 (stereo partly drawn) [Compound I-72it]	5.9	94.1	> 25				
CCN1CCC(F)(F)CC1COc1ccc2c(c1)CN(C1CCC(=O)NC1=O)C2=O (single isomer, unassigned) [I-252 (Isomer 1), 3-(5-((1-ethyl-4,4-difluoropiperidin-2-yl)methoxy)-1-oxoisoindolin-2-yl)piperidine-2,6-dione]			0.05			58.1	41.9
O=C1CCC(N2Cc3cc(OC[C@@H]4CCCCN4C(=O)[C@@H]4CCC(=O)N4Cc4ccccc4)ccc3C2=O)C(=O)N1 (stereo partly drawn) [Compound I-72ed]	4.6	95.4	> 25				
O=C1CCC(N2Cc3cc(OC[C@H]4CCCCN4Cc4ccc(N5CCN(Cc6ccccc6)CC5)cc4)ccc3C2=O)C(=O)N1 (stereo partly drawn) [Compound I-50br]	94.1	5.9	0.044				
COC(=O)[C@@H]1CC[C@H](CN2CCCC[C@@H]2COc2ccc3c(c2)CN(C2CCC(=O)NC2=O)C3=O)C1 (stereo partly drawn) [Compound I-50bq]	72.1	27.9	1.2				
O=C1CCC(N2Cc3cc(OC[C@H]4CCCCN4CC4CCOC4)ccc3C2=O)C(=O)N1 (single isomer, unassigned) [Compound I-211]	53.9	46.1	0.15				
CN(C)c1ncc(CN2CCCC[C@@H]2COc2ccc3c(c2)CN(C2CCC(=O)NC2=O)C3=O)cn1 (stereo partly drawn) [Compound I-50ar]	78.2	21.8	1.14				
O=C1CCC(N2Cc3cc(OC[C@H]4CCCCN4Cc4ccc(N5CCN(C6CCOCC6)CC5)cc4)ccc3C2=O)C(=O)N1 (stereo partly drawn) [Compound I-109, 3-(1-oxo-5-(((R)-1-(4-(4-(tetrahydro-2H-pyran-4-yl)piperazin-1-yl)benzyl)piperidin-2-yl)methoxy)isoindolin-2-yl)piperidine-2,6-dione]	70.1	29.9	1.5				
CN1CCCC1C(=O)N1CCCC[C@@H]1COc1ccc2c(c1)CN(C1CCC(=O)NC1=O)C2=O (stereo partly drawn) [Compound I-72dd]	19.5	80.5	> 25				
CC(C)c1cc(C(=O)N2CCCC[C@H]2COc2ccc3c(c2)CN(C2CCC(=O)NC2=O)C3=O)on1 (stereo partly drawn) [Compound I-72dp]	30.5	69.5	> 25				
O=C1CCC(N2Cc3cc(OC[C@H]4CCCCN4Cc4ccc(N5CCN(C6CC6)CC5)cc4)ccc3C2=O)C(=O)N1 (stereo partly drawn) [Compound I-233, 3-(5-(((R)-1-(4-(4-cyclopropylpiperazin-1-yl)benzyl)piperidin-2-yl)methoxy)-1-oxoisoindolin-2-yl)piperidine-2,6-dione]	81.1	18.9	0.00073				
CN1CCOc2cc(C(=O)N3CCCC[C@H]3COc3ccc4c(c3)CN(C3CCC(=O)NC3=O)C4=O)cnc21 (stereo partly drawn) [Compound I-72ij]	68.7	31.3	2.77				
COC12CC(CN3CCCC[C@@H]3COc3ccc4c(c3)CN(C3CCC(=O)NC3=O)C4=O)(C1)C2 (stereo partly drawn) [Compound I-163, 3-(5-(((R)-1-((3-methoxybicyclo[1.1.1]pentan-1-yl)methyl)piperidin-2-yl)methoxy)-1-oxoisoindolin-2-yl)piperidine-2,6-dione]	70.5	29.5	0.029				

Now from value to compound, other results behind:

Dmax [1] [%]	remaining activity at up to 25 µM [2] [%]	DC50 [µM]	SMILES	Dmax (HEK-293T, read-out: % degradation of WIZ (100-Amax), 100 minus Amax, 293T cells) [%]	remaining activity (HEK-293T, read-out: WIZ Amax, DMSO-normalized, curve-fitted percentage of WIZ-HiBit remaining at 25 uM, 293T cells) [%]	% degradation of WIZ (100-Amax) (100 minus Amax, at 25 uM, 293T cells) [%]	WIZ Amax (DMSO-normalized, curve-fitted percentage of WIZ-HiBit remaining at 25 uM, 293T cells) [%]
94.3	5.71	0.00022	O=C1CCC(N2Cc3cc(OC[C@H]4CCCCN4Cc4ccc(C5(C(F)(F)F)CC5)cc4)ccc3C2=O)C(=O)N1 (stereo partly drawn) [Compound I-173, 3-(1-oxo-5-(((R)-1-(4-(1-(trifluoromethyl)cyclopropyl)benzyl)piperidin-2-yl)methoxy)isoindolin-2-yl)piperidine-2,6-dione]				
9.2	90.8	> 25	COc1ccc(CC(=O)N2CCCC[C@H]2COc2ccc3c(c2)CN(C2CCC(=O)NC2=O)C3=O)cn1 (stereo partly drawn) [Compound I-72hk]				
59.4	40.6	13.6	N#Cc1ccccc1CN1CCCC[C@H]1COc1ccc2c(c1)CN(C1CCC(=O)NC1=O)C2=O (stereo partly drawn) [Compound I-50h]				
92.5	7.5	0.149	O=C1CCC(N2Cc3cc(OC[C@H]4CCCCN4Cc4nccn4Cc4ccccc4)ccc3C2=O)C(=O)N1 (stereo partly drawn) [Compound I-50ax]				
99.3	0.7	0.026	Cc1nccn1-c1ccc(CN2CCCC[C@@H]2COc2ccc3c(c2)CN(C2CCC(=O)NC2=O)C3=O)cc1 (stereo partly drawn) [Compound I-50ew]				
80.2	19.8	0.133	O=C1CCC(N2Cc3cc(OC[C@H]4CCCCN4Cc4cnn(-c5cnccn5)c4)ccc3C2=O)C(=O)N1 (stereo partly drawn) [Compound I-50ct]				
6.8	93.2	> 25	COc1ccc(C(=O)N2CCCC[C@H]2COc2ccc3c(c2)CN(C2CCC(=O)NC2=O)C3=O)nn1 (stereo partly drawn) [Compound I-72gm]				
94.8	5.23	0.055	CC(C)(C)OC(=O)N1CCN(c2ccccc2CN2CCCC[C@@H]2COc2ccc3c(c2)CN(C2CCC(=O)NC2=O)C3=O)CC1 (stereo partly drawn) [Compound I-105, Tert-butyl 4-(2-(((2R)-2-(((2-(2,6-dioxopiperidin-3-yl)-1-oxoisoindolin-5-yl)oxy)methyl)piperidin-1-yl)methyl)phenyl)piperazine-1-carboxylate]				
25.7	74.3	> 25	COC(=O)c1nn(-c2cccc(C(F)(F)F)c2)cc1CN1CCCC[C@H]1COc1ccc2c(c1)CN(C1CCC(=O)NC1=O)C2=O (stereo partly drawn) [Compound I-50ay]				
34.7	65.3	> 25	O=C1CCC(N2Cc3cc(OC[C@@H]4CCCCN4Cc4ccc[nH]c4=O)ccc3C2=O)C(=O)N1 (stereo partly drawn) [Compound I-50k]				
11	89	> 25	Cn1ccc(-c2cccc(C(=O)N3CCCC[C@H]3COc3ccc4c(c3)CN(C3CCC(=O)NC3=O)C4=O)c2)n1 (stereo partly drawn) [Compound I-72id]				
97.2	2.8	0.013	O=C1CCC(N2Cc3cc(OC[C@H]4CCCCN4Cc4cccc(Cn5ccnc5)c4)ccc3C2=O)C(=O)N1 (stereo partly drawn) [Compound I-50eh]				
65.4	34.6	3.49	O=C1CCC(N2Cc3cc(OC[C@@H]4CCCCN4Cc4ccc(C(=O)N5CCCC5)cc4)ccc3C2=O)C(=O)N1 (stereo partly drawn) [Compound I-50j]				
70.8	29.2	3.04	O=C1CCC(N2Cc3cc(OC[C@H]4CCCCN4Cc4c[nH]cn4)ccc3C2=O)C(=O)N1 (stereo partly drawn) [Compound I-50ds]				
50.9	49.1	> 25	COc1ccc(CN2CCCC[C@H]2COc2ccc3c(c2)CN(C2CCC(=O)NC2=O)C3=O)cn1 (stereo partly drawn) [Compound I-50bf]				
67.2	32.8	1.77	COc1cc(C#N)ccc1CN1CCCC[C@@H]1COc1ccc2c(c1)CN(C1CCC(=O)NC1=O)C2=O (stereo partly drawn) [Compound I-50cm]				
14.9	85.1	> 25	CC(C)c1ccccc1C(=O)N1CCCC[C@H]1COc1ccc2c(c1)CN(C1CCC(=O)NC1=O)C2=O (stereo partly drawn) [Compound I-72gi]				
19.1	80.9	> 25	CCn1cc(C(=O)N2CCCC[C@H]2COc2ccc3c(c2)CN(C2CCC(=O)NC2=O)C3=O)c(C)n1 (stereo partly drawn) [Compound I-72gw]				
14.4	85.6	> 25	Cc1onc(-c2ccccc2)c1CC(=O)N1CCCC[C@H]1COc1ccc2c(c1)CN(C1CCC(=O)NC1=O)C2=O (stereo partly drawn) [Compound I-72gp]				
78.8	21.2	0.0042	COc1ccc(CN2CCCC[C@@H]2COc2ccc3c(c2)CN(C2CCC(=O)NC2=O)C3=O)cc1C#N (stereo partly drawn) [Compound I-196, 5-(((2R)-2-(((2-(2,6-dioxopiperidin-3-yl)-1-oxoisoindolin-5-yl)oxy)methyl)piperidin-1-yl)methyl)-2-methoxybenzonitrile]				
